This is an account of results in the supplement of paper PMC9663587.
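Wherever GR50, 72 h is given: breast cancer and non-malignant breast epithelial cell lines, Deep Dye Drop or Dye Drop imaging, nine half-log doses, GR normalized to time-zero plates and DMSO-only controls.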

Compound in one experiment: CCOc1cc2ncc(C#N)c(Nc3ccc(OCc4ccccn4)c(Cl)c3)c2cc1NC(=O)/C=C/CN(C)C [Neratinib/HKI272]
Assay: not given
Details: not given
Regarding MDAMB468, the “GR50, 72 h” value was determined as 0.158 µM.
Still for that read-out and setting: in the case of MGH312 it was 0.168 µM; in that of PDX1258, 1.1 µM.
The same measure, in the same setting: under PDXHCI002 stands 0.162 µM; under SKBR3, 0.00165 µM.
Still for that read-out and setting: under SUM44PE stands 0.0248 µM.

Compound in another experiment: CN(C)C/C=C/C(=O)Nc1ccc(C(=O)Nc2cccc(Nc3ncc(Cl)c(-c4c[nH]c5ccccc45)n3)c2)cc1 [THZ1]
Assay: not given
Details: not given
As for MDAMB468, the “GR50, 72 h” value is 0.0236 µM.
For MGH312, the “GR50, 72 h” value stood at 0.00839 µM.
Still for that read-out and setting: under PDX1258 stands 0.0148 µM; under PDXHCI002, 0.0115 µM; under SKBR3, 0.014 µM.
The same measure, in the same setting: under SUM44PE stands 0.00443 µM.

Compound in another experiment: CN1CC[C@H](c2c(O)cc(O)c3c(=O)cc(-c4ccccc4Cl)oc23)[C@H](O)C1 [Flavopiridol]
Assay: not given
Details: not given
With MDAMB468, the “GR50, 72 h” value was 0.173 µM.
Same read-out and setting: in the case of MGH312 it was 0.0997 µM.
The same measure, in the same setting: in the case of PDX1258 it was 0.0943 µM.
On the same count and under the same terms, in the case of PDXHCI002 it was 0.114 µM; in that of SKBR3, 0.132 µM.
Consider SUM44PE, for which the “GR50, 72 h” value amounted to 0.0276 µM.

Compound in the next experiment: CN1CCN(CCOc2cc(OC3CCOCC3)c3c(Nc4c(Cl)ccc5c4OCO5)ncnc3c2)CC1 [Saracatinib/AZD0530]
Assay: not given
Details: not given
As to MDAMB468, the “GR50, 72 h” value is 4.96 µM.
Take MGH312: the “GR50, 72 h” value was 0.133 µM.
Same read-out and setting: under PDX1258 stands 0.722 µM; under PDXHCI002, 0.0805 µM.
SKBR3: the “GR50, 72 h” value was found to be 4.92 µM.
Same read-out and setting: under SUM44PE stands 6.6 µM.

Compound in another experiment: CN(C)CC[C@H](CSc1ccccc1)Nc1ccc(S(=O)(=O)NC(=O)c2ccc(N3CCN(Cc4ccccc4-c4ccc(Cl)cc4)CC3)cc2)cc1[N+](=O)[O-] [ABT-737]
Assay: not given
Details: not given
In the case of MDAMB468, the “GR50, 72 h” value worked out at 6.03 µM.
The same measure, in the same setting: in the case of MGH312 it was 2.19 µM; in that of PDX1258, above 10 µM; in that of PDXHCI002, 5.62 µM.
The same measure, in the same setting: under SKBR3 stands above 10 µM; under SUM44PE, 4.3 µM.

Compound in the next experiment: CC1=CN2C(=O)C=C(N=C2C(=C1)C(C)NC3=CC=CC=C3)N4CCOCC4 [TGX221]
Assay: not given
Details: not given
MDAMB468: the “GR50, 72 h” value was above 10 µM.
On to MGH312, for which the “GR50, 72 h” value came out at 0.155 µM.
The same measure, in the same setting: under PDX1258 stands above 10 µM; under PDXHCI002, above 10 µM; under SKBR3, above 10 µM.
Take SUM44PE: the “GR50, 72 h” value was above 10 µM.

Compound in a further experiment: CC(=O)c1c(C)c2cnc(Nc3ccc(N4CCN(CCOCCOCCOCCNC(=O)COc5cccc6c5C(=O)N(C5CCC(=O)NC5=O)C6=O)CC4)cn3)nc2n(C2CCCC2)c1=O [BSJ-03-123]
Assay: not given
Details: not given
On to MDAMB468, for which the “GR50, 72 h” value came to 1.71 µM.
Same read-out and setting: in the case of MGH312 it was 4.41 µM.
On the same count and under the same terms, under PDX1258 stands 4.91 µM; under PDXHCI002, 1.64 µM; under SKBR3, 1.02 µM.
Still for that read-out and setting: in the case of SUM44PE it was 0.818 µM.

Compound in a further experiment: COc1ccc2c(c1)[C@]1(C[C@H]1c1ccc3c(/C=C/c4ccc(CN5C[C@@H](C)O[C@@H](C)C5)cc4)n[nH]c3c1)C(=O)N2
Assay: not given
Details: not given
As for MDAMB468, the “GR50, 72 h” value was 0.00342 µM.
Same read-out and setting: under MGH312 stands 0.00114 µM.
Regarding PDX1258, the “GR50, 72 h” value came to 0.00294 µM.
For the cell line PDXHCI002, the “GR50, 72 h” value was found to be 0.00689 µM.
Same read-out and setting: under SKBR3 stands 0.00188 µM; under SUM44PE, 0.000792 µM.

Compound in a further experiment: CNCc1ccc(-c2[nH]c3cc(F)cc4c3c2CCNC4=O)cc1 [Rucaparib]
Assay: not given
Details: not given
For the cell line MDAMB468, the “GR50, 72 h” value came to 8.56 µM.
On the same count and under the same terms, in the case of MGH312 it was above 10 µM; in that of PDX1258, above 10 µM.
Same read-out and setting: under PDXHCI002 stands above 10 µM.
SKBR3: the “GR50, 72 h” value was above 10 µM.
In the case of SUM44PE, the “GR50, 72 h” value was above 10 µM.

Compound in another experiment: CN(C)C/C=C/C(=O)Nc1ccc(O[C@@H]2CCC[C@@H](Nc3ncc(Cl)c(-c4c[nH]c5ccccc45)n3)C2)cc1 [BSJ-01-175]
Assay: not given
Details: not given
For the cell line MDAMB468, the “GR50, 72 h” value amounted to 0.00931 µM.
The same measure, in the same setting: in the case of MGH312 it was 0.00657 µM; in that of PDX1258, 0.00362 µM.
As for PDXHCI002, the “GR50, 72 h” value was found to be 0.00607 µM.
On the same count and under the same terms, in the case of SKBR3 it was 0.00832 µM.
For SUM44PE, the “GR50, 72 h” value came out at 0.0082 µM.

Compound in a further experiment: C=CC(=O)Nc1ccc(C(=O)Nc2[nH]nc3c2CN(C(=O)N[C@H](CN(C)C)c2ccccc2)C3(C)C)cc1 [YKL-5-124]
Briefly: GR value, 72 h; higher = faster growth (1 = untreated, <0 = killing).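 Further: breast cancer and non-malignant breast epithelial lines, nine half-log doses, viable cells counted by Hoechst and LIVE/DEAD dye imaging versus time-zero plates and DMSO controls.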 The conditions noted are these: 0.001 µM.
For MDAMB468, the GR value is 0.23 GR.
Same read-out and setting: under MGH312 stands 0.624 GR; under PDX1258, 0.686 GR; under PDXHCI002, 0.288 GR.
Take SKBR3: the GR value amounted to 0.455 GR.
With SUM44PE, the GR value is -0.181 GR.

The same experiment, now with this note: 0.003162 µM.
With MDAMB468, the GR value came out at 0.077 GR.
The same measure, in the same setting: in the case of MGH312 it was 0.384 GR; in that of PDX1258, 0.363 GR.
Take PDXHCI002: the GR value came out at 0.306 GR.
Still for that read-out and setting: under SKBR3 stands 0.198 GR.
Same read-out and setting: in the case of SUM44PE it was 0.0065 GR.

Staying with this experiment, now noted: 0.01 µM.
With MDAMB468, the GR value stood at 0 GR.
Consider MGH312, for which the GR value was found to be 0.182 GR.
As for PDX1258, the GR value stood at 0.231 GR.
The same measure, in the same setting: in the case of PDXHCI002 it was 0.168 GR.
As to SKBR3, the GR value came out at 0.164 GR.
Still for that read-out and setting: under SUM44PE stands -0.018 GR.

Still in this experiment, the particulars now being: 0.03162 µM.
Consider MDAMB468, for which the GR value is -0.101 GR.
Still for that read-out and setting: under MGH312 stands 0.299 GR.
Same read-out and setting: under PDX1258 stands 0.0382 GR; under PDXHCI002, 0.196 GR.
On the same count and under the same terms, under SKBR3 stands 0.137 GR; under SUM44PE, -0.112 GR.

The experiment is the same for the next values; noted with them: 0.1 µM.
Regarding MDAMB468, the GR value is -0.149 GR.
Same read-out and setting: in the case of MGH312 it was 0.104 GR; in that of PDX1258, 0.0596 GR.
Still for that read-out and setting: under PDXHCI002 stands 0.158 GR.
For SKBR3, the GR value came out at 0.102 GR.
In the case of SUM44PE, the GR value is -0.198 GR.

The same experiment, now with this note: 0.3162 µM.
Consider MDAMB468, for which the GR value was -0.177 GR.
In the case of MGH312, the GR value was determined as 0.0051 GR.
Same read-out and setting: in the case of PDX1258 it was -0.0277 GR; in that of PDXHCI002, 0.0899 GR.
Still for that read-out and setting: under SKBR3 stands -0.123 GR; under SUM44PE, -0.167 GR.

The same experiment, now with this note: 1 µM.
In the case of MDAMB468, the GR value was -0.217 GR.
The same measure, in the same setting: in the case of MGH312 it was -0.083 GR; in that of PDX1258, -0.147 GR; in that of PDXHCI002, 0.0177 GR.
Same read-out and setting: in the case of SKBR3 it was 0.0239 GR; in that of SUM44PE, -0.274 GR.

The experiment is the same for the next values; noted with them: 3.162 µM.
Turning to MDAMB468, the GR value was -0.309 GR.
In the case of MGH312, the GR value was -0.264 GR.
The same measure, in the same setting: in the case of PDX1258 it was -0.294 GR; in that of PDXHCI002, 0.0442 GR.
On to SKBR3, for which the GR value was -0.0117 GR.
The same measure, in the same setting: in the case of SUM44PE it was -0.448 GR.

Still in this experiment, the particulars now being: 10 µM.
For the cell line MDAMB468, the GR value was -0.549 GR.
Turning to MGH312, the GR value is -0.924 GR.
The same measure, in the same setting: under PDX1258 stands -0.519 GR; under PDXHCI002, -0.129 GR; under SKBR3, -0.572 GR.

Compound in the next experiment: CN(C)C/C=C/C(=O)Nc1ccc(C(=O)N2CCC[C@@H](Nc3ncc(Cl)c(-c4c[nH]c5ccccc45)n3)C2)cc1 [THZ531]
The description is as above. The conditions noted are these: 0.0001 µM.
For the cell line MDAMB468, the GR value came out at 1.02 GR.
Still for that read-out and setting: in the case of MGH312 it was 1.09 GR; in that of PDX1258, 0.889 GR; in that of PDXHCI002, 1.1 GR.
On the same count and under the same terms, in the case of SKBR3 it was 1.03 GR; in that of SUM44PE, 1.05 GR.

The experiment is the same for the next values; noted with them: 0.0003162 µM.
MDAMB468: the GR value amounted to 1 GR.
Same read-out and setting: in the case of MGH312 it was 1.17 GR.
